From patent EP1537858A1, “Drug delivery vehicles and uses thereof” (Vectron Therapeutics AG, priority 2003, dated 2005)

What was measured:
[1] = Pharmacokinetics of doxorubicin in blood after i.v. injection (HPLC); type: in vivo; conditions: i.v. tail vein, nude mice, blood doxorubicin by HPLC
Procedure: AVE9-dox and AVE95-dox were injected i.v. into the tail veins of nude mice and blood concentration of doxorubicin was determined by HPLC at varying time points. In this experiment we included unencapsulated doxorubicin as well as doxorubicin encapsulated into pegylated "stealth liposomes" (Doxil®). Compared to AVE9-dox AVE95-dox caused a prolonged serum residence time of doxorubicin (50% value of 11 min for AVE9-dox versus 23 min for AVE95-dox). Unencapsulated dox was rapidly cleared from the circulation (50% value = < 3 min). In contrast, after injection of Doxil® more than 50% of initial doxorubicin was present in the blood after 6 hours (Fig. 4). […] Doxorubicin concentrations in the liver and spleen were increased 3-fold after applying AVE95-dox compared to free doxorubicin.

[2] = test system: C26 murine colon carcinoma; experiment: Pharmacodynamics of doxorubicin liposomes in C26 tumor model; type: in vivo, nude mice
Procedure: For further studies pharmacodynamic experiments in a C26 murine colon carcinoma model were performed. For this purpose tumor cells were injected subcutaneously into nude mice. After tumors had reached a size of approximately 50-100 mm^3 tumor-bearing mice were treated with doxorubicin-loaded liposomes injecting a doxorubicin dose of 4 mg/kg body weight at days 1, 3 and 6.
In a first experiment AVE9-dox and AVE95-dox (see example 10) were compared to unencapsulated doxorubicin. In this experiment we observed reduced tumor growth and a prolonged survival time for animals treated with AVE95-dox compared to animals treated with AVE9-dox or free doxorubicin. […] The difference between free doxorubicin and AVE95-dox at day 12 was statistically significant (p = 0.05). This was also reflected by the mean survival time which was 20 days for AVE95-dox treated animals, 16 days for AVE9-dox treated animals, 14 days for doxorubicin-treated animals, and 12 days for untreated animals.
In a second experiment free doxorubicin was compared to AVE95-dox, when administered either at 4 or at 8 mg/kg body weight to C26-tumor-bearing mice. […] In contrast, tumor growth was further reduced using 8 mg/kg AVE95-dox compared to […] AVE95-dox.
In a third experiment AVE95-dox was compared to Doxil® for the treatment of C26 tumors applying a dose of 4 mg/kg.
In a final set of experiments, AVE95-dox liposomes were compared to a AVE95-based formulation containing varying sphingomyelin concentrations. Firstly, AVE95-dox was compared to the same formulation in which sphingomyelin was substituted by phosphatidylcholine (AVE95-0SM-dox). […] Secondly, AVE95-dox was compared to liposomes consisting of 50 mol% cholesterol, 30 mol% sphingomyelin and 20 mol% phosphatidylcholine. Thus, this formulation contained the same cholesterol concentration but approximately twice as much sphingomyelin as AVE95 liposomes.

[3] = Pharmacokinetics and organ accumulation of mitoxantrone after i.v. injection (HPLC); type: in vivo; conditions: i.v. tail vein, nude mice, blood mitoxantrone by HPLC
Procedure: AVE95-MXR liposomes were injected i.v. into the tail veins of nude mice and blood concentration of mitoxantrone was determined by HPLC at varying time points. In this experiment we included unencapsulated mitoxantrone. AVE95-MXR caused a prolonged serum residence time of mitoxantrone (50% value = 110 min) compared to unencapsulated mitoxantrone which was rapidly cleared from circulation (50% value = < 3 min) (Fig. 8). […] Mitoxantrone concentrations in the liver and spleen were similar to free mitoxantrone.

[4] = test system: C26 murine colon carcinoma; experiment: Pharmacodynamics of mitoxantrone liposomes in C26 tumor model; type: in vivo, nude mice; conditions: mitoxantrone dose of 4 mg/kg at days 0, 2 and 5
Procedure: Efficacy of AVE95-MRX was analyzed in a C26 murine colon carcinoma model. For this purpose tumor cells were injected subcutaneously into nude mice. After tumors had reached a size of approximately 50-100 mm^3, tumor-bearing mice were treated with mitoxantrone-loaded liposomes injecting a mitoxantrone dose of […] or 4 mg/kg body weight at days 0, 2 and 5. Unencapsulated mitoxantrone was included in these experiments. […] However, at this dose tumor growth was further reduced for AVE95-encapsulated mitoxantrone compared to free mitoxantrone (Fig. 9). This improved efficacy compared to free mitoxantrone was also observed at a mitoxantrone concentration of […].

Row | SMILES | 50% value (serum residence time of doxorubicin) [1] | tumor growth compared to untreated control animals ([2]; 4 mg/kg at days 1, 3 and 6, first experiment) | lethality ([2]; at 8 mg/ml (so in the source), C26-tumor-bearing mice) | mean survival time ([2]; doxorubicin 4 mg/kg body weight at days 1, 3 and 6, first experiment) | tumor growth at 8 mg/kg compared to 4 mg/kg ([2]; second experiment, 4 or 8 mg/kg body weight) | 50% value (serum residence time of mitoxantrone) [3] | inhibition of tumor growth [4]
1 | COc1cccc2c1C(=O)c1c(O)c3c(c(O)c1C2=O)C[C@@](O)(C(=O)CO)C[C@@H]3O[C@H]1C[C@H](N)[C@H](O)[C@H](C)O1 [doxorubicin] | < 3 min | reduced tumor growth compared to untreated control animals | increased lethality | 14 days | No differences in tumor growth |  | 
2 | O=C1c2c(O)ccc(O)c2C(=O)c2c(NCCNCCO)ccc(NCCNCCO)c21 [mitoxantrone, Mitoxantrone] |  |  |  |  |  | < 3 min | strong inhibition of tumor growth
